pEC50, pIC50: −log10 of the molar value.
Experiments:
human 5-HT4b receptor = target: T1, human 5-HT4b receptor (Homo sapiens, UniProt Q13639); assay: Test Example 4: Serotonin 4 (5-HT4) receptor agonist activity assay, cAMP HTRF in CHO cells (Table 100); format: cell-based; settings: mean value; for Emax: CHO, 0.25 h, intrinsic activity, maximal activity of 5-HT defined as 100%, read-out: IA (%); for pEC50: concentration showing 50% of IA
T1 construct: expressed in transfected cells; host or cells: CHO cells (G418 selection)
T1 sequence (Q13639 whole entry): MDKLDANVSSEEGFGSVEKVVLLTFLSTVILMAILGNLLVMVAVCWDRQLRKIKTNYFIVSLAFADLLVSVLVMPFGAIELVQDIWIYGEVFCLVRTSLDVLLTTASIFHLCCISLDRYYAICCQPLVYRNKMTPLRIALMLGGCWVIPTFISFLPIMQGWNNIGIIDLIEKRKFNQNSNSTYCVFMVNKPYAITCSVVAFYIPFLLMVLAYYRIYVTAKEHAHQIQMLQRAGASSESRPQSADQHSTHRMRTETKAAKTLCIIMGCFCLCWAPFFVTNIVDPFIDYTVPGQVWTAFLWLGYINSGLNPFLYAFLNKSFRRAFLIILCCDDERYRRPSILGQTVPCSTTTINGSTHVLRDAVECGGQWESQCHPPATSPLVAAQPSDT
How it was run: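 Read-out is HTRF cAMP (time-resolved fluorescence 620/665 nm after 1 h RT with cAMP-cryptate and cAMP-d2), from recombinant CHO cells bearing human 5-HT4b treated with compound 15 min at 31° C. in Hanks/HEPES buffer pH 7.4. IA (%) scaled to peak 5-HT effect over 10^−11–10^−7 M; EC50 is concentration giving half that IA.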

[1] = target: T2, Human 5-HT4 receptor (5-HT4b) (Homo sapiens, UniProt Q13639); assay: Test Example 3: Human 5-HT4 receptor binding assay, membranes of CHO-K1 cells stably expressing 5-HT4b receptors (Table 99); settings: mean value of each group
T2 construct: expressed in transfected cells; membrane preparation
T2 sequence (Q13639 whole entry): as above
How it was run: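 Radioligand displacement: [3H]-GR113808 (0.1 nM) bound to CHO-K1 5-HT4b membranes for 30 min at 37 °C in Hepes buffer (50 mM, pH 7.4). Specific binding is total minus that with 30 μM serotonin; filter-bound radioactivity counted, IC50 derived from percent inhibition.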

Row | Structure (SMILES) | Emax (human 5-HT4b receptor) [%] | pEC50 (human 5-HT4b receptor) | pIC50 [1]
1 | CC(C)c1nn(-c2noc(C[C@H]3CCN(C[C@@H]4CCCN4C(=O)CO)C3)n2)c2c(F)cccc12 [Example 540, 1-[(2S)-2-{[(3R)-3-({3-[7-fluoro-3-(propan-2-yl)-1H-indazol-1-yl]-1,2,4-oxadiazol-5-yl}methyl)pyrrolidin-1-yl]methyl}pyrrolidin-1-yl]-2-hydroxyethanone] | 106 | 7.82 | 7.11
2 | CC(C)c1nn(-c2noc(C[C@H]3CCN(C[C@H]4CCCN4C(=O)CO)C3)n2)c2c(F)cccc12 [Example 541, 1-[(2R)-2-{[(3R)-3-({3-[7-fluoro-3-(propan-2-yl)-1H-indazol-1-yl]-1,2,4-oxadiazol-5-yl}methyl)pyrrolidin-1-yl]methyl}pyrrolidin-1-yl]-2-hydroxyethanone] | 79 | 8.05 | 7.45
3 | CC(C)c1nn(-c2noc(C[C@H]3CCN(CC4CN(C(=O)CO)C4)C3)n2)c2c(F)cccc12 [Example 542, 1-(3-{[(3R)-3-({3-[7-fluoro-3-(propan-2-yl)-1H-indazol-1-yl]-1,2,4-oxadiazol-5-yl}methyl)pyrrolidin-1-yl]methyl}azetidin-1-yl)-2-hydroxyethanone] | 90 | 8.48 | > 7.70
4 | CC(C)c1nn(-c2noc(C[C@H]3CCN(C[C@@H]4CCN(C(=O)CO)C4)C3)n2)c2c(F)cccc12 [Example 543, 1-[(3S)-3-{[(3R)-3-({3-[7-fluoro-3-(propan-2-yl)-1H-indazol-1-yl]-1,2,4-oxadiazol-5-yl}methyl)pyrrolidin-1-yl]methyl}pyrrolidin-1-yl]-2-hydroxyethanone] | 92 | 8.43 | > 7.70
5 | CC(C)c1nn(-c2noc(C[C@H]3CCN(C[C@H]4CCN(C(=O)CO)C4)C3)n2)c2c(F)cccc12 [Example 544, 1-[(3R)-3-{[(3R)-3-({3-[7-fluoro-3-(propan-2-yl)-1H-indazol-1-yl]-1,2,4-oxadiazol-5-yl}methyl)pyrrolidin-1-yl]methyl}pyrrolidin-1-yl]-2-hydroxyethanone] | 58 | 8.33 | > 7.70
6 | CC(C)c1nn(-c2noc(C[C@@H]3CCN(C4CCN(C(=O)CO)CC4)C3)n2)c2c(F)cccc12 [Example 545, 1-{4-[(3S)-3-({3-[7-fluoro-3-(propan-2-yl)-1H-indazol-1-yl]-1,2,4-oxadiazol-5-yl}methyl)pyrrolidin-1-yl]piperidin-1-yl}-2-hydroxyethanone] | 60 | 8.26 | > 7.70
7 | CC(C)c1nn(-c2noc(C[C@@H]3CCN(C[C@@H]4CCCN4C(=O)CO)C3)n2)c2c(F)cccc12 [Example 546, 1-[(2S)-2-{[(3S)-3-({3-[7-fluoro-3-(propan-2-yl)-1H-indazol-1-yl]-1,2,4-oxadiazol-5-yl}methyl)pyrrolidin-1-yl]methyl}pyrrolidin-1-yl]-2-hydroxyethanone] | 63 | 7.70 | > 7.70
8 | CC(C)c1nn(-c2noc(C[C@@H]3CCN(C[C@H]4CCCN4C(=O)CO)C3)n2)c2c(F)cccc12 [Example 547, 1-[(2R)-2-{[(3S)-3-({3-[7-fluoro-3-(propan-2-yl)-1H-indazol-1-yl]-1,2,4-oxadiazol-5-yl}methyl)pyrrolidin-1-yl]methyl}pyrrolidin-1-yl]-2-hydroxyethanone] | 54 | 7.85 | > 7.70
9 | CC(C)c1nn(-c2noc(C[C@@H]3CCN(CC4CN(C(=O)CO)C4)C3)n2)c2c(F)cccc12 [Example 548, 1-(3-{[(3S)-3-({3-[7-fluoro-3-(propan-2-yl)-1H-indazol-1-yl]-1,2,4-oxadiazol-5-yl}methyl)pyrrolidin-1-yl]methyl}azetidin-1-yl)-2-hydroxyethanone] | 73 | 8.19 | > 7.70
10 | CC(C)c1nn(-c2noc(C[C@@H]3CCN(C[C@@H]4CCN(C(=O)CO)C4)C3)n2)c2c(F)cccc12 [Example 549, 1-[(3S)-3-{[(3S)-3-({3-[7-fluoro-3-(propan-2-yl)-1H-indazol-1-yl]-1,2,4-oxadiazol-5-yl}methyl)pyrrolidin-1-yl]methyl}pyrrolidin-1-yl]-2-hydroxyethanone] | 91 | 8.25 | > 7.70
11 | CC(C)c1nn(-c2noc(C[C@@H]3CCN(C[C@H]4CCN(C(=O)CO)C4)C3)n2)c2c(F)cccc12 [Example 550, 1-[(3R)-3-{[(3S)-3-({3-[7-fluoro-3-(propan-2-yl)-1H-indazol-1-yl]-1,2,4-oxadiazol-5-yl}methyl)pyrrolidin-1-yl]methyl}pyrrolidin-1-yl]-2-hydroxyethanone] | 85 | 8.29 | > 7.70
12 | CC(=O)N1CCC(N2CCC(F)(c3nc(-n4nc(C(C)C)c5cccc(F)c54)no3)CC2)CC1 [Example 561, 1-(4-fluoro-4-{3-[7-fluoro-3-(propan-2-yl)-1H-indazol-1-yl]-1,2,4-oxadiazol-5-yl}-1,4′-bipiperidin-1′-yl)ethanone] | 109 | 8.05 | 7.48
13 | CC(=O)NCCCN[C@H]1C[C@@H](c2nc(-n3nc(C(C)C)c4cccc(F)c43)no2)C1 [Example 566] | 90 | 8.51 | > 7.70
14 | CCc1nn(-c2noc(C3CCN(C[C@@H]4CCN(C(=O)CO)C4)CC3)n2)c2c(F)cccc12 [Example 582, 1-[(3S)-3-({4-[3-(3-ethyl-7-fluoro-1H-indazol-1-yl)-1,2,4-oxadiazol-5-yl]piperidin-1-yl}methyl)pyrrolidin-1-yl]-2-hydroxyethanone] | 91 | 8.43 | > 7.70
15 | CCc1nn(-c2noc(C3CCN(C[C@@H]4CCCN4C(=O)CO)CC3)n2)c2c(F)cccc12 [Example 583, 1-[(2S)-2-({4-[3-(3-ethyl-7-fluoro-1H-indazol-1-yl)-1,2,4-oxadiazol-5-yl]piperidin-1-yl}methyl)pyrrolidin-1-yl]-2-hydroxyethanone] | 84 | 8.23 | > 7.70
16 | CC(C)c1nn(-c2noc(C3CC(NC4CCOCC4)C3)n2)c2c(F)cccc12 (stereo not drawn) [Example 595, N-(3-{3-[7-fluoro-3-(propan-2-yl)-1H-indazol-1-yl]-1,2,4-oxadiazol-5-yl}cyclobutyl)tetrahydro-2H-pyran-4-amine] | 93 | 8.16 | > 7.70

The next compounds have a higher pEC50 (human 5-HT4b receptor) than those just listed; values first:

Row | Emax (human 5-HT4b receptor) [%] | pEC50 (human 5-HT4b receptor) | pIC50 [1] | Structure (SMILES)
17 | 76 | 8.62 | > 7.70 | CCc1nn(-c2noc(C3CCN(C4(C)CCN(C(=O)CO)CC4)CC3)n2)c2c(F)cccc12 [Example 538, 1-{4-[3-(3-ethyl-7-fluoro-1H-indazol-1-yl)-1,2,4-oxadiazol-5-yl]-4′-methyl-1,4′-bipiperidin-1′-yl}-2-hydroxyethanone]
18 | 75 | 8.59 | > 7.70 | CC(C)c1nn(-c2noc(C[C@H]3CCN(C4CCN(C(=O)CO)CC4)C3)n2)c2c(F)cccc12 [Example 539, 1-{4-[(3R)-3-({3-[7-fluoro-3-(propan-2-yl)-1H-indazol-1-yl]-1,2,4-oxadiazol-5-yl}methyl)pyrrolidin-1-yl]piperidin-1-yl}-2-hydroxyethanone]
19 | 109 | 8.62 | > 7.70 | CC(C)c1nn(-c2noc(C3CCN(C[C@@H]4CCN(S(C)(=O)=O)C4)CC3)n2)c2c(F)cccc12 [Example 585, 7-fluoro-1-[5-(1-{[(3S)-1-(methylsulfonyl)pyrrolidin-3-yl]methyl}piperidin-4-yl)-1,2,4-oxadiazol-3-yl]-3-(propan-2-yl)-1H-indazole]
20 | 105 | 8.66 | > 7.70 | CC(C)c1nn(-c2noc(C3CCN(C[C@H]4CCN(S(C)(=O)=O)C4)CC3)n2)c2c(F)cccc12 [Example 586, 7-fluoro-1-[5-(1-{[(3R)-1-(methylsulfonyl)pyrrolidin-3-yl]methyl}piperidin-4-yl)-1,2,4-oxadiazol-3-yl]-3-(propan-2-yl)-1H-indazole]
21 | 101 | 8.55 | 7.90 | CC(=O)N1CCC(CN[C@H]2C[C@@H](c3nc(-n4nc(C(C)C)c5cccc(F)c54)no3)C2)CC1 [Example 590, 1-(4-{[(cis-3-{3-[7-fluoro-3-(propan-2-yl)-1H-indazol-1-yl]-1,2,4-oxadiazol-5-yl}cyclobutyl)amino]methyl]piperidin-1-yl)ethanone]
22 | 97 | 8.59 | > 7.70 | CC(=O)N1CC[C@H](NC2CC(c3nc(-n4nc(C(C)C)c5cccc(F)c54)no3)C2)C1 (stereo partly drawn) [Example 591, 1-{(3S)-3-[(3-{3-[7-fluoro-3-(propan-2-yl)-1H-indazol-1-yl]-1,2,4-oxadiazol-5-yl}cyclobutyl)amino]pyrrolidin-1-yl}ethanone]
23 | 99 | 8.57 | > 7.70 | CC(=O)N1CCC(N[C@H]2C[C@@H](c3nc(-n4nc(C(C)C)c5cccc(F)c54)no3)C2)CC1 [Example 593, 1-{4-[(cis-3-{3-[7-fluoro-3-(propan-2-yl)-1H-indazol-1-yl]-1,2,4-oxadiazol-5-yl}cyclobutyl)amino]piperidin-1-yl}ethanone]
24 | 106 | 8.64 | > 7.70 | CC(C)c1nn(-c2noc([C@H]3C[C@@H](NCC4CCN(S(C)(=O)=O)CC4)C3)n2)c2c(F)cccc12 [Example 594, cis-3-{3-[7-fluoro-3-(propan-2-yl)-1H-indazol-1-yl]-1,2,4-oxadiazol-5-yl}-N-{[1-(methylsulfonyl)piperidin-4-yl]methyl}cyclobutanamine]

Reference: patent US20140057895A1, “INDAZOLE- AND PYRROLOPYRIDINE-DERIVATIVE AND PHARMACEUTICAL USE THEREOF” (priority 2011, published 2014)
